tested on: trachea (trachealis muscle tissue); test: Test for inhibition of calcium-dependent smooth muscle contraction (KCl-challenged tracheal rings); format: cell-based; conditions: Canis lupus familiaris, 10 min; dog tracheal rings, 50 mM KCl challenge, test compound added for 10 minutes
Procedure: The trachea and the aorta from dogs sacrificed by excess KCl injection are stored overnight at 4° C. in oxygenated Krebs-Henseleit buffer. Tracheal rings, one cartilage segment wide (5-10 mm), are cut starting from the bronchial end. Rings of aorta tissue of the same width are also prepared. After cutting the cartilage, the trachealis muscle tissue and the aorta tissue are suspended in oxygenated Krebs-Henseleit buffer at 37° C. in a 25 ml tissue bath. After a 60-minute equilibration period, the tissues are challenged with 10 μM carbachol. After 5 minutes, the tissues are rinsed and allowed to rest 50 minutes. The tissues are then challenged with 50 mM KCl and, after 30 minutes, the contractions are quantitated. The tissues are then rinsed and re-equilibrated for 50 minutes. Test compounds are then added for 10 minutes, and the tissue is rechallenged with 50 mM KCl. After 30 minutes, the contraction is recorded and used to determine the % inhibition of control. The percent inhibition of smooth muscle contraction is calculated as follows from response data before and after drug treatment:
% inhibition=100−100×peak response after drug treatment/peak response before drug treatment

IC50 | SMILES
55 nM | CC1=C(C(=O)OCCN(C)Cc2ccccc2)C(c2ccccc2Cl)C2=C(COCCS2(=O)=O)N1 (stereo not drawn) [Compound 3, 5H-[1,4]oxathiepino[6,5-b]pyridine-8-carboxylic acid, 9-(2-chlorophenyl)-2,3,6,9-tetrahydro-7-methyl, 2-[methyl(phenylmethyl)amino]ethyl ester, 1,1-dioxide]

biological target: T1, calcium channel (3H-nitrendipine binding, heart membranes) (Oryctolagus cuniculus, UniProt P15381); test: Assay for inhibition of nitrendipine binding (3H-nitrendipine, rabbit heart membranes); conditions: 3H-nitrendipine 0.05-0.50 nM, 90 minutes at 4° C., compounds of Formula I (Table 1)
T1 construct: from tissue; host or cells: rabbit heart (crude membrane pellet)
T1 sequence (P15381 whole entry, other chains not shown): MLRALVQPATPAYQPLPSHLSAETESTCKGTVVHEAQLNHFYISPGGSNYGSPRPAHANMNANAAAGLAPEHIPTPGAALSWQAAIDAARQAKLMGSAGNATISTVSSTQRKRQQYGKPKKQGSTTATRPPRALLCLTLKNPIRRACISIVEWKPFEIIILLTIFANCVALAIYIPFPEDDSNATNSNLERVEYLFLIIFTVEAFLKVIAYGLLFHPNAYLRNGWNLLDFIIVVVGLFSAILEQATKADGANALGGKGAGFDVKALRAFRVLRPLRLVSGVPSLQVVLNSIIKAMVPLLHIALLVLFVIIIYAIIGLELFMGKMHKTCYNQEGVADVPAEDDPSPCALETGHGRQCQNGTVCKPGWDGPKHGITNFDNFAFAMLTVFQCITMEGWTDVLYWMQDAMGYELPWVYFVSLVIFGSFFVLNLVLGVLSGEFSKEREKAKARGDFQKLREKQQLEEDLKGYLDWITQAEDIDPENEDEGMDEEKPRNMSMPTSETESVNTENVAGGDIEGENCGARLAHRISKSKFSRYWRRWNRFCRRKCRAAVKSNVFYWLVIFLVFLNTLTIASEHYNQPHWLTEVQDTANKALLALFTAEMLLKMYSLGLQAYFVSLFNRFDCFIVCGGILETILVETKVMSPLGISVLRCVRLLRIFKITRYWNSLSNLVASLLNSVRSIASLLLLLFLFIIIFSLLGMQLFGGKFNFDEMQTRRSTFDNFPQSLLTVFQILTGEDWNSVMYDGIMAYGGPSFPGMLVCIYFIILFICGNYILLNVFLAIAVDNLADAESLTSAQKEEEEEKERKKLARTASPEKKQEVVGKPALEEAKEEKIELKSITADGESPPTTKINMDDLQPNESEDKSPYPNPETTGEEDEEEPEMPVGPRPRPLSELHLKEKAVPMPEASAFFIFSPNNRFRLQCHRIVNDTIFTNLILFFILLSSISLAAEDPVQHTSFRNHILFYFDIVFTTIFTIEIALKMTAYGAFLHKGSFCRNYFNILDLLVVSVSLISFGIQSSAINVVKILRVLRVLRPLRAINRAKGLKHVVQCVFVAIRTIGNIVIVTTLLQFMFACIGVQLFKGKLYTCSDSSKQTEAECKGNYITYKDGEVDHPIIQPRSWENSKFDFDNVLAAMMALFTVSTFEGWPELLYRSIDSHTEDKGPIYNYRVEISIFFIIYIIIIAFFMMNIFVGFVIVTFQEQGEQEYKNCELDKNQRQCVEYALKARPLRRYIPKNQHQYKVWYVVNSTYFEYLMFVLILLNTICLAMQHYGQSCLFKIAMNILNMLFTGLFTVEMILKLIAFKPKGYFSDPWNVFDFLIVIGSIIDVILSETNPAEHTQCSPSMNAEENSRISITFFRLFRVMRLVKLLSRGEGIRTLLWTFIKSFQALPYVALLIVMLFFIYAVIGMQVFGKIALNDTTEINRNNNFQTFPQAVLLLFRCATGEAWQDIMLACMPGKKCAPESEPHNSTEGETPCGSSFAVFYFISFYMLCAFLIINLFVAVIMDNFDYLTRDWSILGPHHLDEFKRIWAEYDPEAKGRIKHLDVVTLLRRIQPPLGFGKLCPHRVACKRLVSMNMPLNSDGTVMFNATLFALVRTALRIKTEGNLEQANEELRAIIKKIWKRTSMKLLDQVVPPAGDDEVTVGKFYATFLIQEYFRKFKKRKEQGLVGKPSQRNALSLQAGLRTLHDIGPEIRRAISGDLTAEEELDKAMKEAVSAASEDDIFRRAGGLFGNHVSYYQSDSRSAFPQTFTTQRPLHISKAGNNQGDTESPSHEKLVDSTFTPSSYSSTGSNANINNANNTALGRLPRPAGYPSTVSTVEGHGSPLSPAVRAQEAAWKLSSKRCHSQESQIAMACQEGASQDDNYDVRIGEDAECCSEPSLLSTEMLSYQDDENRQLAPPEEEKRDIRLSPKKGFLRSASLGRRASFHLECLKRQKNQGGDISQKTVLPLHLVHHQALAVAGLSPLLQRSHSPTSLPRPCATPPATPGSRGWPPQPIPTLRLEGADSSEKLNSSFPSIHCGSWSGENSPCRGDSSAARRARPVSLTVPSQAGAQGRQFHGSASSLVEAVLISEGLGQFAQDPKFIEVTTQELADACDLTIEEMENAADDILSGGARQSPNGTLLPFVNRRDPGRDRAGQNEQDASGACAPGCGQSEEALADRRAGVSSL
T1 sequence (P13806 27-960 partner limits assumed, other chains not shown): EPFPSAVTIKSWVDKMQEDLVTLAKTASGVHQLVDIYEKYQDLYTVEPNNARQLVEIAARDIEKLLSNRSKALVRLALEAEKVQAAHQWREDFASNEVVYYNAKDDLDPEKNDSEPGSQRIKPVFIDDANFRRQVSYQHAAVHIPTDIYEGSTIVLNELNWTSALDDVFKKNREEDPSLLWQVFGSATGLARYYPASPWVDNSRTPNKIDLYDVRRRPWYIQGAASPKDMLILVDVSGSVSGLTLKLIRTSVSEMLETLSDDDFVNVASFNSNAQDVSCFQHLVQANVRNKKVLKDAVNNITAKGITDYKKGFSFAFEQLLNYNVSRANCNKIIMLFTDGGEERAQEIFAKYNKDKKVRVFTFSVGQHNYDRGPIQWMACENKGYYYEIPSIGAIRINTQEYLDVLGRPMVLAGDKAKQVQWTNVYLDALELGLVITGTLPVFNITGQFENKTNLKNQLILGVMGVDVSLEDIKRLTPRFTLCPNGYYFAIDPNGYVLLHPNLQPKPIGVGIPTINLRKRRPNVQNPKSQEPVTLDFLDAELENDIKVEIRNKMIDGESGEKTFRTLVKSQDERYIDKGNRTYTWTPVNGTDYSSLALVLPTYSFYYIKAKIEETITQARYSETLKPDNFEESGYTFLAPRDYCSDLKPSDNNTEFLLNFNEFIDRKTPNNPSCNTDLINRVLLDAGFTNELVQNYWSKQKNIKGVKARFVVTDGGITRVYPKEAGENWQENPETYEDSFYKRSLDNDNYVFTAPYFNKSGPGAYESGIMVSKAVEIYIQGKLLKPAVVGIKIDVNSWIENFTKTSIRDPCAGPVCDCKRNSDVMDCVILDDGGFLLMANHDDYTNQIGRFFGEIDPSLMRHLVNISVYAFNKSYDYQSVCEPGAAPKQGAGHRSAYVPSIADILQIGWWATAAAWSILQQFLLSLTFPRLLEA
T1 sequence (P13806 961-1106 partner limits assumed, other chains not shown): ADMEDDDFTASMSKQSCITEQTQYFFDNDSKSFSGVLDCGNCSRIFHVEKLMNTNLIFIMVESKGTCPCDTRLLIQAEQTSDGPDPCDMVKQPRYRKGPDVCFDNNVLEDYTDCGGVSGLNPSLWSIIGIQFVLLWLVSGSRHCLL
Procedure: Female, New Zealand white rabbits (1-2 kg) are sacrificed by cervical dislocation, and the heart is immediately removed, cleaned and chopped into small pieces. The tissue is homogenized in 5×volume of 0.05M Hepes buffer, pH 7.4. The homogenate is centrifuged at 4000 g for 10 minutes, and the supernatant is re-centrifuged at 42,000 g for 90 minutes. The resulting membrane pellet is resuspended (0.7 ml/g weight) in 0.05M Hepes, pH 7.4 and stored at […] until used. Each tube of the binding assay contains ^3H-nitrendipine (0.05-0.50 nM), buffer, membranes (0.10 ml ), and test compound in a total volume of 1.0 ml . After 90 minutes at 4° C., the bound nitrendipine is separated from the unbound by filtration on Whatman GF/C filters. After rinsing, the filters are dried and counted in a liquid scintillation counter.
Non-specifically bound ^3H-nitrendipine (i.e., the amount bound in the presence of excess unlabelled nitrendipine) is subtracted from the total bound to obtain specifically-bound radiolabeled nitrendipine. The amount of specifically-bound nitrendipine in the presence of a test compound is compared to the amount bound in the absence of the compound. A percent displacement (or inhibition) can then be obtained.

IC50 | SMILES
39 nM | CC1=C(C(=O)OCCN(C)Cc2ccccc2)C(c2cccc([N+](=O)[O-])c2)C2=C(COCCS2(=O)=O)N1 (stereo not drawn) [Compound 1, 5H-[1,4]oxathiepino[6,5-b]pyridine-8-carboxylic acid, 2,3,6,9-tetrahydro-7-methyl-9-(3-nitrophenyl), 2-[methyl(phenylmethyl)amino]ethyl ester, 1,1-dioxide]
12 nM | COC(=O)C1=C(C)NC2=C(C1c1ccccc1Cl)S(=O)(=O)CCOC2 (stereo not drawn) [Compound 2, 5H-[1,4]oxathiepino[6,5-b]pyridine-8-carboxylic acid, 9-(2-chlorophenyl)-2,3,6,9-tetrahydro-7-methyl, methyl ester, 1,1-dioxide]
129 nM | CC1=C(C(=O)OCCN(C)Cc2ccccc2)C(c2ccccc2Cl)C2=C(COCCS2(=O)=O)N1 (stereo not drawn) [Compound 3, 5H-[1,4]oxathiepino[6,5-b]pyridine-8-carboxylic acid, 9-(2-chlorophenyl)-2,3,6,9-tetrahydro-7-methyl, 2-[methyl(phenylmethyl)amino]ethyl ester, 1,1-dioxide]
46 nM | COC(=O)C1=C(C)NC2=C(C1c1cccc([N+](=O)[O-])c1)S(=O)(=O)CCOC2 (stereo not drawn) [Compound 4, 5H-[1,4]oxathiepino[6,5-b]pyridine-8-carboxylic acid, 2,3,6,9-tetrahydro-7-methyl-9-(3-nitrophenyl), methyl ester, 1,1-dioxide]
34 nM | COC(=O)C1=C(C)NC2=C(C1c1ccccc1[N+](=O)[O-])S(=O)(=O)CCOC2 (stereo not drawn) [Compound 5, 5H-[1,4]oxathiepino[6,5-b]pyridine-8-carboxylic acid, 2,3,6,9-tetrahydro-7-methyl-9-(2-nitrophenyl), methyl ester, 1,1-dioxide]
21 nM | COC(=O)C1=C(C)NC2=C(C1c1cccc(Cl)c1)S(=O)(=O)CCOC2 (stereo not drawn) [Compound 6, 5H-[1,4]oxathiepino[6,5-b]pyridine-8-carboxylic acid, 9-(3-chlorophenyl)-2,3,6,9-tetrahydro-7-methyl, methyl ester, 1,1-dioxide]
13 nM | CC1=C(C(=O)OCCN(C)Cc2ccccc2)C(c2cccc(Cl)c2)C2=C(COCCS2(=O)=O)N1 (stereo not drawn) [Compound 7, 5H-[1,4]oxathiepino[6,5-b]pyridine-8-carboxylic acid, 9-(3-chlorophenyl)-2,3,6,9-tetrahydro-7-methyl, 2-[methyl(phenylmethyl)amino]ethyl ester, 1,1-dioxide]
86 nM | CC1=C(C(=O)OCCN(C)Cc2ccccc2)C(c2ccccc2[N+](=O)[O-])C2=C(COCCS2(=O)=O)N1 (stereo not drawn) [Compound 8, 5H-[1,4]oxathiepino[6,5-b]pyridine-8-carboxylic acid, 2,3,6,9-tetrahydro-7-methyl-9-(2-nitrophenyl), 2-[methyl(phenylmethyl)amino]ethyl ester, 1,1-dioxide]

same assay, conditions: 3H-nitrendipine, compounds of Formula IIa (Table 2)

IC50 | SMILES
17 nM | CC1=C(C(=O)OCCOC(=O)c2ccccc2)C(c2c(F)cccc2Cl)C2=C(COCCS2(=O)=O)N1 (stereo not drawn) [Compound 10, 5H-[1,4]oxathiepino[6,5-b]pyridine-8-carboxylic acid, 9-(2-chloro-6-fluorophenyl)-2,3,6,9-tetrahydro-7-methyl-, 2-(benzoyloxy)ethyl ester, 1,1-dioxide]
96 nM | CC1=C(C(=O)OCCOC(=O)C2CCCCC2)C(c2c(F)cccc2Cl)C2=C(COCCS2(=O)=O)N1 (stereo not drawn) [Compound 11, 5H-[1,4]oxathiepino[6,5-b]pyridine-8-carboxylic acid, 9-(2-chloro-6-fluorophenyl)-2,3,6,9-tetrahydro-7-methyl-, 2-[(cyclohexylcarbonyl)oxy]ethyl ester, 1,1-dioxide]
582 nM | CC(=O)OCCOC(=O)C1=C(C)NC2=C(C1c1c(F)cccc1Cl)S(=O)(=O)CCOC2 (stereo not drawn) [Compound 12, 5H-[1,4]oxathiepino[6,5-b]pyridine-8-carboxylic acid, 9-(2-chloro-6-fluorophenyl)-2,3,6,9-tetrahydro-7-methyl-, 2-(acetyloxy)ethyl ester, 1,1-dioxide]
418 nM | CC1=C(C(=O)OCCOC(=O)C2CC2)C(c2c(F)cccc2Cl)C2=C(COCCS2(=O)=O)N1 (stereo not drawn) [Compound 13, 5H-[1,4]oxathiepino[6,5-b]pyridine-8-carboxylic acid, 9-(2-chloro-6-fluorophenyl)-2,3,6,9-tetrahydro-7-methyl-, 2-[(cyclopropylcarbonyl)oxy]ethyl ester, 1,1-dioxide]
60 nM | CC1=C(C(=O)OCCOC(=O)C(C)C)C(c2c(F)cccc2Cl)C2=C(COCCS2(=O)=O)N1 (stereo not drawn) [Compound 14, 5H-[1,4]oxathiepino[6,5-b]pyridine-8-carboxylic acid, 9-(2-chloro-6-fluorophenyl)-2,3,6,9-tetrahydro-7-methyl-, 2-(2-methyl-1-oxopropoxy)ethyl ester, 1,1-dioxide]
20000 nM | CC1=C(C(=O)OCCO)C(c2ccccc2Cl)C2=C(COCCS2(=O)=O)N1 (stereo not drawn) [Compound 15, 5H-[1,4]oxathiepino[6,5-b]pyridine-8-carboxylic acid, 9-(2-chlorophenyl)-2,3,6,9-tetrahydro-7-methyl-, 2-hydroxyethyl ester, 1,1-dioxide]
40 nM | CC1=C(C(=O)OCCCOC(=O)c2ccccc2)C(c2ccccc2Cl)C2=C(COCCS2(=O)=O)N1 (stereo not drawn) [Compound 16, 5H-[1,4]oxathiepino[6,5-b]pyridine-8-carboxylic acid, 9-(2-chlorophenyl)-2,3,6,9-tetrahydro-7-methyl-, 3-(benzoyloxy)propyl ester, 1,1-dioxide]
36 nM | CC1=C(C(=O)OCCOC(=O)C(C)C)C(c2ccccc2Cl)C2=C(COCCS2(=O)=O)N1 (stereo not drawn) [Compound 17, 5H-[1,4]oxathiepino[6,5-b]pyridine-8-carboxylic acid, 9-(2-chlorophenyl)-2,3,6,9-tetrahydro-7-methyl-, 2-(2-methyl-1-oxopropoxy)ethyl ester, 1,1-dioxide]
21 nM | CC1=C(C(=O)OCc2oc(=O)oc2-c2ccccc2)C(c2cccc(Cl)c2Cl)C2=C(COCCS2(=O)=O)N1 (stereo not drawn) [Compound 18, 5H-[1,4]oxathiepino[6,5-b]pyridine-8-carboxylic acid, 9-(2,3-dichlorophenyl)-2,3,6,9-tetrahydro-7-methyl-, (2-oxo-5-phenyl-1,3-dioxol-4-yl)methyl ester, 1,1-dioxide]
18 nM | CC1=C(C(=O)OCc2oc(=O)oc2C)C(c2cccc(Cl)c2Cl)C2=C(COCCS2(=O)=O)N1 (stereo not drawn) [Compound 19, 5H-[1,4]oxathiepino[6,5-b]pyridine-8-carboxylic acid, 9-(2,3-dichlorophenyl)-2,3,6,9-tetrahydro-7-methyl-, (5-methyl-2-oxo-1,3-dioxol4-yl)methyl ester, 1,1-dioxide]
4360 nM | CC1=C(C(=O)OCCO)C(c2c(F)cccc2Cl)C2=C(COCCS2(=O)=O)N1 (stereo not drawn) [Compound 20]
560 nM | CC1=C(C(=O)OCCCO)C(c2ccccc2Cl)C2=C(COCCS2(=O)=O)N1 (stereo not drawn) [Compound 21]
